# Results taken from patent US9765034B2, “5-halogenopyrazole biphenylcarboxamides” (BAYER CROPSCIENCE AG, priority 2012, dated 2017).
# Assays:
# Phytophthora infestans = type: in vivo; conditions: tomato plants, preventive spray, 500 ppm, grading 5 days after contamination
# Pyrenophora teres = experiment: In vivo preventive test on Pyrenophora teres (net blotch on barley); conditions: barley plants, preventive spray, 500 ppm, grading 14 days after contamination
# Method: Example: In Vivo Preventive Test on Pyrenophora teres (Net Blotch on Barley) […] Barley plants (“Plaisant” variety), sown in starter cups on a 50/50 peat soil-pozzolana substrate and grown at 22° C., are treated at the 1-leaf stage (10 cm height) by spraying with the active ingredient prepared as described above. Plants, used as controls, are treated with the mixture of acetone/tween/DMSO/water not containing the active material. After 24 hours, the plants are contaminated by spraying the leaves with an aqueous suspension of Pyrenophora teres spores (12 000 spores per ml). The spores are collected from a 12-day-old culture. […] Grading (% of efficacy) is carried out 14 days after the contamination, in comparison with the control plants. Under these conditions, good (at least 70%) or total protection is observed at a dose of 500 ppm with the following compounds: […]
# Pyricularia oryzae = type: in vivo; conditions: rice plants, preventive spray, 500 ppm, grading 6 days after contamination
# Puccinia recondita = experiment: In vivo preventive test on Puccinia recondita (brown rust on wheat); conditions: wheat plants, preventive spray, 500 ppm, grading 12 days after contamination
# Method: Example: In Vivo Preventive Test on Puccinia recondita (Brown Rust on Wheat) […] Wheat plants (“Scipion” variety), sown in starter cups on a 50/50 peat soil-pozzolana substrate and grown at 22° C., are treated at the 1-leaf stage (10 cm height) by spraying with the active ingredient prepared as described above. Plants, used as controls, are treated with the mixture of acetone/tween/DMSO/water not containing the active material. After 24 hours, the plants are contaminated by spraying the leaves with an aqueous suspension of Puccinia […] spores (100 000 spores per ml). […] Grading (% of efficacy) is carried out 12 days after the contamination, in comparison with the control plants. Under these conditions, good (at least 70%) or total protection is observed at a dose of 500 ppm with the following compounds: […]
# Septoria tritici = experiment: In vivo preventive test on Septoria tritici (leaf spot on wheat); conditions: wheat plants, preventive spray, 500 ppm, grading 24 days after contamination
# Method: Example: In Vivo Preventive Test on Septoria tritici (Leaf Spot on Wheat) […] Wheat plants (“Scipion” variety), sown in starter cups on a 50/50 peat soil-pozzolana substrate and grown at 22° C., are treated at the 1-leaf stage (10 cm height) by spraying with the active ingredient prepared as described above. Plants, used as controls, are treated with the mixture of acetone/tween/DMSO/water not containing the active material. After 24 hours, the plants are contaminated by spraying the leaves with an aqueous suspension of cryopreserved Septoria tritici spores (500 000 spores per ml). […] Grading (% of efficacy) is carried out 24 days after the contamination, in comparison with the control plants. Under these conditions, good (at least 70%) or total protection is observed at a dose of 500 ppm with the following compounds: […]
# Sphaerotheca fuliginea = experiment: In vivo preventive test on Sphaerotheca fuliginea (powdery mildew on cucurbits); conditions: gherkin plants, preventive spray, 500 ppm, grading 12 days after contamination
# Method: Example: In Vivo Preventive Test on Sphaerotheca fuliginea (Powdery Mildew on Cucurbits) […] Gherkin plants (“Vert petit de Paris” variety), sown in starter cups on a 50/50 peat soil-pozzolana substrate and grown at 24° C., are treated at the Z11 cotyledon stage by spraying with the active ingredient prepared as described above. Plants, used as controls, are treated with the mixture of acetone/tween/DMSO/water not containing the active material. After 24 hours, the plants are contaminated by spraying the cotyledons with an aqueous suspension of Sphaerotheca fuliginea spores (100 000 spores per ml). The spores are collected from infected plants. […] Grading (% of efficacy) is carried out 12 days after the contamination, in comparison with the control plants. Under these conditions, good (at least 70%) or total protection is observed at a dose of 500 ppm with the following compounds: […]
# Uromyces appendiculatus = experiment: In vivo preventive test on Uromyces appendiculatus (bean rust); conditions: bean plants, preventive spray, 500 ppm, grading 11 days after contamination
# Method: Example: In Vivo Preventive Test on Uromyces appendiculatus (Bean Rust) […] Bean plants (“Saxa” variety), sown in starter cups on a 50/50 peat soil-pozzolana substrate and grown at 24° C., are treated at the 2-leaf stage (9 cm height) by spraying with the active ingredient prepared as described above. Plants, used as controls, are treated with the mixture of acetone/tween/DMSO/water not containing the active material. After 24 hours, the plants are contaminated by spraying the leaves with an aqueous suspension of Uromyces appendiculatus spores (150 000 spores per ml). […] Grading (% of efficacy) is carried out 11 days after the contamination, in comparison with the control plants. Under these conditions, good (at least 70%) or total protection is observed at a dose of 500 ppm with the following compounds: […]
# [1] = tested on: Fusarium nivale (var. majus); experiment: In vivo Fusarium nivale (var. majus) test (wheat)/preventive; conditions: preventive, 500 ppm of active ingredient, evaluated 5 days after inoculation
# Method: (§1) Example: In Vivo Fusarium nivale (Var. Majus)-Test (Wheat)/Preventive Solvent: 49 parts by weight of N,N-dimethylacetamide Emulsifier: 1 part by weight of alkylaryl polyglycol ether To produce a suitable preparation of active compound, 1 part by weight of active compound or active compound combination is mixed with the stated amounts of solvent and emulsifier, and the concentrate is diluted with water to the desired concentration. To test for preventive activity, young plants are sprayed with the preparation of active compound or active compound combination at the stated rate of application. After the spray coating has been dried, the plants are slightly injured by using a sandblast and afterwards to they are sprayed with a conidia suspension of Fusarium nivale (var. majus).
# [2] = logP by HPLC on reversed phase columns (EEC directive 79/831 Annex V.A8); conditions: method [a]: LC-MS at pH 2.7, 0.1% formic acid in water / acetonitrile gradient 10% to 95%
# Botrytis cinerea = experiment: In vivo preventive test on Botrytis cinerea (grey mould); conditions: gherkin plants, preventive spray, 500 ppm, grading 4 to 5 days after contamination
# Method: Example: In Vivo Preventive Test on Botrytis cinerea (Grey Mould) […] Gherkin plants (“Vert petit de Paris” variety), sown in starter cups on a 50/50 peat soil-pozzolana substrate and grown at 24° C., are treated at the Z11 cotyledon stage by spraying with the active ingredient prepared as described above. Plants, used as controls, are treated with the mixture of acetone/tween/DMSO/water not containing the active material. After 24 hours, the plants are contaminated by spraying the cotyledons with an aqueous suspension of cryopreserved Botrytis cinerea spores (50 000 spores per ml). The spores are suspended in a nutrient solution composed of 10 g/L of PDB, 50 g/L of D-Fructose, 2 g/L of NH4NO3 and 1 g/L of KH2PO4. […] Grading (% of efficacy) is carried out 4 to 5 days after the contamination, in comparison with the control plants. Under these conditions, good (at least 70%) or total protection is observed at a dose of 500 ppm with the following compounds: […]
# [3] = tested on: Blumeria graminis fsp. hordei; experiment: In vivo Blumeria test (barley)/preventive; conditions: preventive, 500 ppm of active ingredient, evaluated 7 days after inoculation
# Method: as §1, with “Blumeria Test (Barley)/Preventive” for “Fusarium nivale (Var. Majus)-Test (Wheat)/Preventive”, “dusted” for “slightly injured by using a sandblast and afterwards to they are sprayed”, “spores” for “a conidia suspension”, “Blumeria graminis fsp. hordei.” for “Fusarium nivale (var. majus).”
# Leptosphaeria nodorum = experiment: In vivo Leptosphaeria nodorum test (wheat)/preventive; conditions: preventive, 500 ppm of active ingredient, evaluated 8 days after inoculation
# Method: as §1, with “Leptosphaeria nodorum Test” for “Fusarium nivale (Var. Majus)-Test”, “are” for “are slightly injured by using a sandblast and afterwards to they are”, “spore” for “conidia”, “Leptosphaeria nodorum.” for “Fusarium nivale (var. majus).”
# physchem = conditions: pH 2.7
# Phakopsora pachyrhizi = experiment: In vivo Phakopsora test (soybeans)/preventive; conditions: preventive, 100 ppm of active ingredient, evaluated 7 days after inoculation
# Method: Example: In Vivo Phakopsora Test (Soybeans)/Preventive Solvent: 24.5 parts by weight of acetone • 24.5 parts by weight of dimethylacetamide Emulsifier: • 1 part by weight of alkylaryl polyglycol ether To produce a suitable preparation of active compound, 1 part by weight of active compound is mixed with the stated amounts of solvent and emulsifier, and the concentrate is diluted with water to the desired concentration. To test for preventive activity, young plants are sprayed with the preparation of active compound at the stated rate of application. After the spray coating has dried on, the plants are inoculated with an aqueous to spore suspension of the causal agent of soybean rust (Phakopsora pachyrhizi) and stay for 24 h without light in an incubation cabinet at approximately 24° C. and a relative atmospheric humidity of 95%.
SMILES,Eff. % (Phytophthora infestans) [%],Eff. % (Pyrenophora teres) [%],Eff. % (Pyricularia oryzae) [%],Eff. % (Puccinia recondita) [%],Eff. % (Septoria tritici) [%],Eff. % (Sphaerotheca fuliginea) [%],Eff. % (Uromyces appendiculatus) [%],Eff. % [1] [%],logP [2],Eff. % (Botrytis cinerea) [%],Eff. % [3] [%],Eff. % (Leptosphaeria nodorum) [%],chromatographic logP (physchem),Eff. % (Phakopsora pachyrhizi) [%]
C#CCON=Cc1ccc(-c2ccccc2NC(=O)c2c(C(F)F)nn(C)c2F)cc1 [Example 4],100,100,80,100,95,100,100,80,3.55[a],,,,,
CCON=Cc1ccc(-c2ccccc2NC(=O)c2c(C(F)F)nn(C)c2F)cc1 [Example 7],,100,90,94,,100,100,,3.87[a],85,100,90,,
CON=Cc1ccc(-c2ccccc2NC(=O)c2c(C(F)F)nn(C)c2Cl)cc1 [Example 8],,97,80,100,100,100,100,,4.18[a],73,100,,,
"CON=Cc1ccc(-c2ccccc2NC(=O)c2c(C(F)F)nn(C)c2F)cc1 [Example 9, 5-fluoro-3-(difluoromethyl)-N-{4′-[(methoxyimino)methyl]biphenyl-2-yl}-1-methyl-1H-pyrazole-4-carboxamide]",,79,80,100,80,100,100,,,,,,3.46,
CCON=C(c1ccc(-c2ccccc2NC(=O)c2c(C(F)F)nn(C)c2F)cc1)C(F)(F)F [Example 29],,97,83,97,,100,100,86,4.46[a],,,,,91
